Assay results taken from US20060204502A1 (priority 2004, published 2006).
“And” between values parts separate entries of the source, which are not always exact repeats. Identical values can stand only once. Like-named read-outs stand apart in the source and are kept apart here.

Assays:
[1] = test system: A375 cells; assay: Flow cytometry cell cycle (G2/M) and apoptosis (sub-G1) analysis, A375; type: cell-based, human; details: for EC50: Homo sapiens; for reduction of apoptosis induced by paclitaxel: A375, paclitaxel 25 ng/ml, PD98059 20 μM, U0126 30 μM, SB203580 1 μM
Protocol: Flow Cytometry Analysis: A375 and NCTC2544 adherent cells were trypsinized, mixed with floating cells, washed with PBS and permeabilised in 70% (vol/vol) ethanol/PBS solution at 4° C. for at least 24 hours. Jurkat, HeL023 and PBMC cells were centrifuged for 10 minutes at 1000×g. The cell pellet was then resuspended and permeabllised in 70% (vol/vol) ethanol/PBS solution at 4° C. for at least 24 hours. The cells were washed with PBS and the DNA was stained with a PBS solution, containing 20 μg/ml of propidium iodide and 100 μg/ml of RNAse, at room temperature for 30 minutes. Cells were analysed by FACScan (Becton-Dickinson) and the content of DNA was evaluated by the Cell-LISYS program (Becton-Dickinson). Cell distribution among cell cycle phases and apoptotic cells was evaluated as previously described (Secchiero et al., 2001). Briefly, the cell cycle distribution is shown as the percentage of cells containing 2n (G1 phase), 4n (G2 and M phases), 4n>x>2n. DNA amount (S phase) judged by propidium iodide staining. The apoptotic population is the percentage of cells with DNA content lower than 2n.
After 24 hours, cells were collected for flow cytometry analysis. PD 98059 was used at 20 uM as an inhibitor of MEK to prevent MEK-1 activation. […]
EC50 values were obtained by analysing G2/M accumulation dose response curve. ECMAX values were obtained by analysing sub-G1 accumulation dose response curve. Paclitaxel values have units of ng/ml.

[2] = biological target: P-gp (Homo sapiens, UniProt P08183); type: cell-based; details: for % of Rh123 Negative Cells (cells expressing P-gp activity): HeL023 cells
Chain of P-gp (P08183 whole entry): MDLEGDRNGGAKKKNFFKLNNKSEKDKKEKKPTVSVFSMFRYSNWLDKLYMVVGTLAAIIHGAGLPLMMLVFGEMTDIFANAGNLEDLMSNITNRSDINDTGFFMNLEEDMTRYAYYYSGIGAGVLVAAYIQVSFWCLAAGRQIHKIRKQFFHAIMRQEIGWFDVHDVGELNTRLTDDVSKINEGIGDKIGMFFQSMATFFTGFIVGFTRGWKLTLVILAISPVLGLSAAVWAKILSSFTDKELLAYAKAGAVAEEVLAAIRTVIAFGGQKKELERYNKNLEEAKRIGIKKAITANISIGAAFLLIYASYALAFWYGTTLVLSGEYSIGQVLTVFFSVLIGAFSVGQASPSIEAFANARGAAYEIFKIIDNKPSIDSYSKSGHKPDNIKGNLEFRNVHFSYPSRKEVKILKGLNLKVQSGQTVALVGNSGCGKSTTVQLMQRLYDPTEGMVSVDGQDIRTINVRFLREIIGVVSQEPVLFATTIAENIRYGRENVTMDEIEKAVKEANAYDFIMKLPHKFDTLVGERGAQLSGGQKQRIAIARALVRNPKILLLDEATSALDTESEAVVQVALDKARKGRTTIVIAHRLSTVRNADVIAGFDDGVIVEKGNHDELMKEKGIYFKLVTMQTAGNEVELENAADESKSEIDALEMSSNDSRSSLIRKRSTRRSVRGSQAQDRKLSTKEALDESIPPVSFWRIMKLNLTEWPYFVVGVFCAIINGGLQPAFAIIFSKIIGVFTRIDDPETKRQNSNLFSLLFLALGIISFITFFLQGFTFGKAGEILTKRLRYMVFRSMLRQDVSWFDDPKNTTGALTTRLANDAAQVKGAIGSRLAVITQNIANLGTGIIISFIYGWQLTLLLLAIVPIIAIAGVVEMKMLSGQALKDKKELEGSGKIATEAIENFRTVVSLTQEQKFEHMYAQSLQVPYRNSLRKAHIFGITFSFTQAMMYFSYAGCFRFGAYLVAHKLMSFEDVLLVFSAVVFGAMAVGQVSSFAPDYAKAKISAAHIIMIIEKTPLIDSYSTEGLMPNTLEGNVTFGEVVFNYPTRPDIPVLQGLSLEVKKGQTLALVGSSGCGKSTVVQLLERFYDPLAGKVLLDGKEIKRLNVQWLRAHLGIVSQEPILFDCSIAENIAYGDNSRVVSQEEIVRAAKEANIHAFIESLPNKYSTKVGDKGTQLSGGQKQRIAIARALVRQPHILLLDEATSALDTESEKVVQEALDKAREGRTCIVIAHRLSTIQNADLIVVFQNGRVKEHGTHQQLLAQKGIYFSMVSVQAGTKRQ
Protocol: Rhodamine 123 Efflux Assay: 5×10^5 cells from each subline were loaded with 50 ng/ml of rhodamine 123 for 30 minutes at 37 C in medium. The cells were washed and resuspended in dye-staining agent free medium for 3 hours at 37 C. to allow rhodamine 123 efflux. The cells were then washed twice and the fluorescence of intracellular rhodamine 123 were analysed with Flow cytometer (residual fluorescence FRES). The fluorescence was compared with loaded cells maintained at 4 C. to prevent drug export (maximal fluorescence FMAX). […] Cells from each subline that were not being exposed to rhodamine 123 were used as negative controls.
Rhodamine 123 (Rh123) retention, a P-gp functional assay, was studied in all cell lines. This assay was performed by incubating cells with Rh123 and determining Rh123 accumulation by measuring its fluorescence. The maximum load of Rh123 (FMAX) was quantified at the end of treatment harvesting the cells and storing them at 4° C. to prevent any active Rh123 efflux. The P-gp drug efflux was allowed incubating Rh123-loaded cells in fresh new medium Rh123-free for 3 hours at 37° C. After this incubation, residual fluorescence (FRES) was measured and compared to FMAX.

[3] = test system: HIF-1α; assay: HIF-1α protein immunoblot in hypoxic cells; type: cell-based, human; details: A375; for effect on Cl-IB-MECA-induced increase of HIF-1α protein expression / effect on adenosine-induced HIF-1α protein expression: hypoxia 4 hours; for effect on Cl-IB-MECA-induced increase of HIF-1α protein expression: Cl-IB-MECA 100 nM, U0126 10 and 30 μM, SB202190 1 and 10 μM; for effect on adenosine-induced HIF-1α protein expression: adenosine 100 μM, antagonist 100 nM
Protocol: Cell culture and hypoxia treatment: Cells were maintained in DMEM (A375), EMEM (NCTC 2544) or RPMI 1640 (U87MG, U2OS) medium containing 10% fetal calf serum, penicillin (100 U/ml), streptomycin (100 ug/ml), and L-glutamine (2 mM) at 37° C. in 5% CO2/95% air. Cells were passaged two or three times weekly at a ratio between 1:5 and 1:10. Hypoxic exposure was in BBL™ GasPak pouch™ System (Becton Dickinson) that reduce oxygen concentration of less than 2% within 2 hours of incubation at 35° C.
Cells were harvested and washed with ice-cold PBS containing 1 mM sodium orthovanadate, AEBSF 104 mM, aprotinin 0.08 mM, leupeptin 2 mM, bestatin 4 mM, pepstatin A 1.5 mM, E-64 1.4 mM. Cells were then lysed in Triton lysis buffer. The protein concentration was determined using BCA protein assay kit (Pierce). […] The gel was then electroblotted onto a nitrocellulose membrane. Membranes were blocked with 5% nonfat dry milk in PBS containing 0.1% Tween-20 and incubated with antibodies against HIF-1α (1:250 dilution) and HIF-1β (1:1000 dilution) in 5% nonfat dry milk in PBS/0.1% Tween-20 overnight at 4° C. Aliquots of total protein sample (50 ug) were analyzed using antibodies specific for phosphorylated (Thr183/Tyr185) or total p44/p42 MAPK (1:5000 dilution), phosphorylated (Thr180/Tyr182) or total p38 MAPK (1:1000 dilution) and for A3 receptor (1 µg/ml dilution). Filters were washed and incubated for 1 hour at room temperature with peroxidase-conjugated secondary antibodies against mouse and rabbit IgG (1:2000 dilution). […] The membranes were then stripped and reprobed with tubulin (1:250) to ensure equal protein loading.
U0126 was used at 10 and 30 uM as inhibitor of MEK-1 and MEK-2 to prevent p44 and p42 MAPK activation. SB202190 was used at 1 and 10 uM as inhibitor of p38 MAPK.
Densitometry analysis: The intensity of each band in immunoblot assay was quantified using molecular analyst/PC densitometry software (Bio-Rad). […] The data were presented as the mean±S.E., and analyzed by the Student's test.

[4] = test system: Human Colon Carcinoma HT29; assay: MTT growth inhibitory assay, HT29; type: cell-based; details: for Enhancement Factor: HT29 cells, A3 antagonist at 0.5 μg/ml
Protocol: (§1) Interpretation of the EF is dependent upon the concentrations of A3 receptor antagonist tested. For example, when using very low concentrations of A3 receptor antagonist, any EF above 1.0 is synergistic if the A3 receptor antagonist concentration is below the threshold of cell growth inhibition.
(§2) The cells are sub-cultured twice a week.
(§3) Vinblastine sulfate salt was obtained from Sigma Chemical Co., (V1377). Irinotecan was diluted with culture medium. All other agents were dissolved in 100% DMSO at appropriate concentrations. The DMSO stock solutions were diluted 100-fold with growth medium so that the final DMSO concentration was 1%.

[5] = test system: Human Pancreatic Cancer Panc-1; assay: MTT growth inhibitory assay, Panc-1; type: cell-based; details: Panc-1 cells, A3 antagonist at 0.5 μg/ml
Protocol: as §1, §2, §3

[6] = test system: Human Lung Carcinoma SKMES; assay: MTT growth inhibitory assay, SKMES; type: cell-based; details: SKMES cells, A3 antagonist at 0.5 μg/ml
Protocol: as §1, §2, §3

[7] = test system: Human Melanoma A375; assay: MTT growth inhibitory assay, A375; details: A375 cells
Protocol: An exemplary assay may comprise the following steps: Cells (1000-1500 cells/well) are seeded in a 96-well micro culture plate in a total volume of 100 μl/well. After overnight incubation in a humidified incubator at 37° C. with 5% CO2-95% air, chemotherapeutic drug solutions diluted with culture medium at various concentrations are added in the amount of 100 μl to each well. The plates are placed in a humidified incubator at 37° C. with 5% CO2-95% air for 7-10 days. The plates are then centrifuged briefly and 100 μl of the growth medium is removed. Cell cultures are incubated with 50 μl of MTT [3-(4,5-dimethylthiazol-2-yl)-2,5-diphenyl-tetrazolium bromide] reagent (1 mg/ml in Dulbecco's phosphate-buffered saline) for 4 hr at 37° C. The resultant purple formazan precipitate is solubilized with 200 μl of 0.04 N HCl in isopropanol. Absorbance is measured at a wavelength of 595 nm and at a reference wavelength of 655 nm using a Bio-Rad Model 3550 Microplate Reader. Preferably, all tests are run in duplicate for each dose level. […] The EZED50 computer program estimates the concentration of agent that inhibits cell growth by 50% as compared to the control cells. This is termed the IC50 and is determined by curve fitting test data using the following four logistic equation. [formula]
If testing concentrations are properly selected (i.e., no or little growth inhibition at low concentrations and complete inhibition at high concentrations), EZED50 program fits the data extremely well and estimates the IC50 value accurately. […] In these instances, the data could be re-analyzed by fixing the Amax value.
In this case, the IC50 could be estimated more accurately if both the Amax and Amin values are fixed. Although it may be feasible to estimate IC50 value by fixing Amax and/or Amax and Amin without repeating the experiment, the best way to determine the IC50 accurately is to decrease or increase the concentrations of the test agent and repeat the test.
Inhibitory assay testing is also used to determine enhanced therapeutic effects from combining A3 receptor antagonists with other tumor inhibiting agents. The inhibitory cell growth assays are run with and without selected concentrations of A3 receptor antagonists. An enhanced therapeutic effect is present when the IC50 of the tumor inhibiting agent is lower with the A3 receptor antagonist.
Quantitatively, the enhancement factor (EF) is calculated by dividing the IC50 value of the tumor inhibiting agent for a tumor cell line by the IC50 value of the agent with A3 receptor antagonist for the same cell line: [formula]
The cells are cultured in a T25 Falcon Tissue Culture flask in a humidified incubator at 37° C. with 5% CO2-95% air. The cells are sub-cultured twice a week.

[8] = administered at 100 mg/m^2; cited from earlier work

Question: Which EC50 ([1]; A-375, read-out: SEC50) does the source give for `Nc1nc2ccc(Cl)cc2c2nc(-c3ccco3)nn12` [CGS 15943, 5-amino-9-chloro-2-(furyl)1,2,4-triazolo[1,5-c]quinazoline, reference compound] here?
Answer: Its EC50 is 12600 ± 1410 nM.

Question: And the “% of Rh123 Negative Cells (cells expressing P-gp activity)” value ([2]; 70 μM)?
Answer: Its value is 87.1 ± 1.0%.

Question: For `N#CC(=C(/N)Sc1ccccc1N)/C(C#N)=C(\N)Sc1ccccc1N` [Compound U0126], which “reduction of apoptosis induced by paclitaxel” value [1] is on record?
Answer: The value was 73±10%.

Question: And the “effect on MRE 3008F20 blockade of P-gp” value ([2]; A375, U0126 30 μM 30 minutes, then MRE3008F20 10 μM)?
Answer: Its value is “failed to prevent MRE 3008F20 blockade of P-gp”.

Question: And the “effect on Cl-IB-MECA-induced increase of HIF-1α protein expression” value [3]?
Answer: The value was “able to inhibit”.

Question: Which “Enhancement Factor” value ([4]; enhancement of docetaxel IC50) does the source give for `CCN(CC)c1ccc(NC(=O)Nc2nc3nn(C)cc3c3nc(-c4ccco4)nn23)cc1.Cl` [IL-10, N-1-(4-diethylamino-phenyl)-N′—S-[8-methyl-2-(2-furyl)-pyrazolo[4,3-e]1,2,4-triazolo[1,5-c]pyrimidine]-urea] here?
Answer: Its value is 5.5.

Question: What about the “Enhancement Factor” value ([4]; enhancement of doxorubicin IC50) of the same compound?
Answer: Its value is 1.5.

Question: And the “Enhancement Factor” value ([4]; enhancement of irinotecan IC50)?
Answer: The value was 1.2.

Question: What about the “Enhancement Factor” value ([4]; enhancement of paclitaxel IC50) of the same compound?
Answer: The value was 2.5.

Question: What about the “Enhancement Factor” value ([5]; enhancement of docetaxel IC50) of the same compound?
Answer: The value was 1.4.

Question: What about the “Enhancement Factor” value ([5]; enhancement of paclitaxel IC50) of the same compound?
Answer: Its value is 1.7.

Question: And the “Enhancement Factor” value ([6]; enhancement of docetaxel IC50)?
Answer: Its value is 2.8.

Question: And the “Enhancement Factor” value ([6]; enhancement of irinotecan HCL IC50)?
Answer: Its value is 1.7.

Question: What about the “Enhancement Factor” value ([6]; enhancement of paclitaxel IC50) of the same compound?
Answer: The value was 2.8.

Question: And the “Enhancement Factor” value ([6]; enhancement of vinblastine IC50)?
Answer: The value was 1.4.

Question: And the “% of Rh123 Negative Cells (cells expressing P-gp activity)” value ([2]; 10 μM)?
Answer: Its value is 0.4 ± 0.2%.

Question: What about the “Enhancement Factor” value ([7]; enhancement of docetaxel IC50, A3 antagonist at 0.5 μg/ml) of the same compound?
Answer: The value was 8.4.

Question: And the “Enhancement Factor” value ([7]; enhancement of docetaxel IC50, A3 antagonist at 5 μg/ml)?
Answer: Its value is 2.9.

Question: And the “Enhancement Factor” value ([7]; enhancement of paclitaxel IC50, A3 antagonist at 0.5 μg/ml)?
Answer: The value was 3.7.

Question: What about the “Enhancement Factor” value ([7]; enhancement of paclitaxel IC50, A3 antagonist at 5 μg/ml) of the same compound?
Answer: The value was 8.8 and 9.2.

Question: For `CCCn1c(=O)c2[nH]c(-c3cc(OCC(=O)Nc4ccc5c(c4)OCO5)nn3C)nc2n(CCC)c1=O` [MRE 2029F20], which “effect on adenosine-induced HIF-1α protein expression” value [3] is on record?
Answer: Its value is “not able to prevent”.

Question: With `Cn1cc2c(nc(NC(=O)Nc3ccncc3)n3nc(-c4ccco4)nc23)n1` [MRE 3005F20] as the compound, how does the “effect on Cl-IB-MECA-induced HIF-1α modulation” value ([3]; hypoxia, antagonist 10 and 100 nM, Cl-IB-MECA 10 and 100 nM) read?
Answer: The value was “able to abrogate the effect of Cl-IB-MECA”.

Question: With `Cc1ccc(NC(=O)Nc2nc3nn(C)cc3c3nc(-c4ccco4)nn23)cc1` [MRE 3046F20, 5-N-(4-methylphenyl-carbamoyl)amino-8-methyl-2(2-furyl)-pyrazolo-[4,3e]-1,2,4-triazolo[1,5-c]pyrimidine] as the compound, how does the EC50 ([1]; A-375, read-out: SEC50) read?
Answer: The EC50 was 570 ± 60 nM.

Question: What about the “% of Rh123 Negative Cells (cells expressing P-gp activity)” value ([2]; 10 μM) of the same compound?
Answer: Its value is 22.0 ± 1.0%.

Question: With `CCCn1cc2c(nc(NC(=O)Nc3ccccc3)n3nc(-c4ccco4)nc23)n1` [MRE 3055F20, 5-N-(4-phenylcarbamoyl)amino-8-propyl-2(2furyl)-pyrazolo[4,3e]-1,2,4-triazolo-[1,5c]pyrimidine] as the compound, how does the EC50 ([1]; A-375, read-out: SEC50) read?
Answer: Its EC50 is 310 ± 30 nM.

Question: And the “% of Rh123 Negative Cells (cells expressing P-gp activity)” value ([2]; 10 μM)?
Answer: Its value is 0.8 ± 0.2%.

Question: Which “effect on Cl-IB-MECA-induced increase of HIF-1α protein expression” value [3] does the source give for `Oc1ccc(-c2nc(-c3ccncc3)c(-c3ccc(F)cc3)[nH]2)cc1` [SB202190] here?
Answer: Its value is “able to inhibit”.

Question: With `C[S+]([O-])c1ccc(-c2nc(-c3ccncc3)c(-c3ccc(F)cc3)[nH]2)cc1` (stereo not shown) [SB203580] as the compound, how does the “reduction of apoptosis induced by paclitaxel” value [1] read?
Answer: The value was “did not exert any effect”.

Question: Which “effect on adenosine-induced HIF-1α protein expression” value [3] does the source give for `Nc1nc2c(cnn2CCc2ccccc2)c2nc(-c3ccco3)nn12` [SCH 58261, 5-amino-7-(2-phenylethyl)-2-(2-furyl)-pyrazolo[4,3-e]-1,2,4-triazolo[1,5-c]pyrimidine] here?
Answer: Its value is “not able to prevent”.

Question: Which results are given for `CC(=O)O[C@@]12CO[C@@H]1C[C@H](O)[C@@]1(C)C(=O)[C@H](O)C3=C(C)[C@@H](OC(=O)[C@H](O)[C@@H](NC(=O)OC(C)(C)C)c4ccccc4)C[C@@](O)([C@@H](OC(=O)c4ccccc4)[C@H]21)C3(C)C` [docetaxel]?
Answer: acute hypersensitivity reaction, % of patients [8]: 13%; severe hypersensitivity reaction, % of patients [8]: 1.2%

Question: For `COc1cccc2c1C(=O)c1c(O)c3c(c(O)c1C2=O)C[C@@](O)(C(=O)CO)C[C@@H]3O[C@H]1C[C@H](N)[C@H](O)[C@H](C)O1` [doxorubicin, reference compound], which “fold more refractory, HT29 vs A375 cell line (IC50)” value [4] is on record?
Answer: Its value is “approximately 30 fold”.

Question: With `O=C1c2c(O)ccc(O)c2C(=O)c2c(NCCNCCO)ccc(NCCNCCO)c21` [mitoxantrone, reference compound] as the compound, how does the “fold more refractory, HT29 vs A375 cell line (IC50)” value [4] read?
Answer: Its value is “approximately 30 fold”.

Question: With `CC[C@]1(O)C[C@@H]2CN(CCc3c([nH]c4ccccc34)[C@@](C(=O)OC)(c3cc4c(cc3OC)N(C)[C@H]3[C@@](O)(C(N)=O)[C@H](O)[C@]5(CC)C=CCN6CC[C@]43[C@@H]65)C2)C1` [vindesine] as the compound, how does the EC50 ([1]; A-375, 24 h, read-out: EC50 (G2/M accumulation)) read?
Answer: Its EC50 is 1.9 ± 0.2 nM.
